US20230103462A1, “TOPICAL PHARMACEUTICAL COMPOSITION IN GEL FORM COMPRISING AT LEAST AMITRIPTYLINE FOR USE IN THE TREATMENT OF NEUROPATHIC PHANTOM LIMB PAIN” (priority 2021, published 2023)

Assay: Comparative ex vivo study of the percutaneous absorption of amitriptyline (Frantz cell)
Type: in vitro ADME
Details: human skin ex vivo, compositions with 10% amitriptyline hydrochloride
Description: Comparative ex vivo study of the percutaneous absorption of amitriptyline in a formulation A in aqueous gel form (invention) and in a formulation B in cream form (comparative). Each of compositions A and B was applied on separate human skin samples. For each composition, the experiment was repeated 3 times with 3 skin samples from 3 different donors, i.e., 9 samples. The skin samples are mounted in a Frantz cell and are heated to a surface temperature of 32° C.±1° C. Composition A or B is spread evenly using a spatula on each skin sample at a rate of 10 mg per cell, corresponding to 5 mg/cm^2 of skin. The skin samples are rinsed 16 hours after application. Each skin sample was placed with a tweezers on a paper towel (dermis facing downward). The stratum corneum is removed using adhesive strips. After removing the stratum corneum, the sample is perforated. The epidermis is then separated from the dermis. Each of them is placed in separate bottles. The different samples were then extracted.

- systemic passage of amitriptyline: less than 0.1 % of the administered dose
SMILES: CN(C)CCC=C1c2ccccc2CCc2ccccc21 [amitriptyline, Amitriptyline]
